{
  "source": "patent US9550821B2",
  "about": "“Modulation of ghrelin levels and ghrelin/unacylated ghrelin ratio using unacylated ghrelin” (ALIZÉ PHARMA SAS, priority 2012, dated 2017)",
  "key": {"[1]": {"system": "glucose, insulin and lipid metabolisms", "settings": "cited from earlier work; for retention of UAG full length activity on glucose, insulin and lipid metabolisms: from U.S. Pat. Nos. 8,222,217 and 8,318,664; for smallest UAG fragment retaining UAG biological activity: from U.S. Pat. Nos. 8,222,217, 8,318,664 and WO/2008/145749"}, "[2]": {"experiment": "Overnight (15 hours) UAG infusion in T2DM subjects: serum UAG levels by MSD ELISA", "type": "in vivo, human", "settings": "placebo 105.9±31.4", "procedure": "(§1) A continuous overnight (15 hours) infusion of two doses of UAG (3 μg UAG/kg/hr and 10 μg UAG/kg/hr) versus placebo in a cross-over model on the AG concentrations was performed in eight overweight subjects with type 2 diabetes. FIG. 1 depicts a schematic representation of the study protocol. Glucose and insulin responses to a standard breakfast meal (SBM) in the subjects and reasonable metabolic control were assessed.\nSingle-center, investigator initiated, double blind and placebo controlled randomized study. During the first visit medical history, medication use and vital signs of subjects were checked. Blood samples were also taken for chemistry and hematology analysis. […]\nInfusions were performed at the local clinical research unit for 15 hours from 9 pm to […]. […] The dose was calculated based on the subject's weight. […]\nStandard breakfast meal (SBM) consisted of: • 3 slices wheat bread; • 3 portions of margarine; • 2 slices of cheese (48% fat); • 1 portion of jam; • 1 cup of whole milk; and • 1 boiled egg; for a total of 714 kcal (17% proteins; 46% fat; and 37% carbohydrates). […] At each of the 3 visits, the following safety parameters were assessed: hemoglobin, hematocrit, platelet count, WBC count, RBC count, and differential and were determined using Sysmex XE 2100, Firma Sysmex, Ecustraat 11, 4879 NP Etten-Leur. […]"}, "[3]": {"experiment": "Safety evaluation during overnight UAG infusion in T2DM subjects", "type": "in vivo, human", "procedure": "as §1\nStandard breakfast meal (SBM) consisted of: • 3 slices wheat bread; • 3 portions of margarine; • 2 slices of cheese (48% fat); • 1 portion of jam; • 1 cup of whole milk; and • 1 boiled egg; for a total of 714 kcal (17% proteins; 46% fat; and 37% carbohydrates). […] At each of the 3 visits, the following safety parameters were assessed: hemoglobin, hematocrit, platelet count, WBC count, RBC count, and differential and were determined using Sysmex XE 2100, Firma Sysmex, Ecustraat 11, 4879 NP Etten-Leur. AST, ALT, alkaline phosphatase, total bilirubin, creatine phophokinase (CPK), lactate dehydrogenase (LDH), creatinine, urea, amylase, lipase, uric acid, glucose, cholesterol, LDL, HDL, triglycerides, sodium, potassium, calcium, chloride, protein and albumin are determined using the Hitachi Modular P800, Roche Transistorstraat 41, 1332 CK Almere. […] AG and UAG levels were assessed before the start of the overnight infusion, 10 minutes before the start and 30 minutes after the SBM. […]"}, "AG-induced food intake": {"system": "AG-induced food intake", "experiment": "AG-induced food intake in rats", "type": "in vivo, Sprague-Dawley rats", "settings": "rat, i.p. 42 μg/kg together with AG 13 μg/kg; food intake at 30 min, 1 h, 2 h", "procedure": "With respect to the experimental data presented in FIG. 8, Sprague-Dawley rats of 7 weeks of age, weighing between 275 g and 300 g, were fed a pellet diet ad libitum and were singly housed in plastic cage. The experiment was performed at 2.5 h after the onset of the light cycle in freely fed rats. The rates were i.p. injected simultaneously with vehicle plus vehicle, vehicle+AG (13 μg/kg) or cyclised UAG (6-13) (SEQ ID NO: 25) (42 μg/kg)+AG (13 μg/kg). Immediately after the completion of the i.p. injection in rats, the night-ad-libitum food was removed and replaced by 2 pellets for each animal, previously weighed, placed into the top of the cage. Food intake was calculated as the difference between the food weight before and after the feeding period at each time interval (30 min, 1 h, and 2 h). Cumulative food intake was calculated by summating the values of the different time periods."}},
  "note": "Where no end group is shown, it is not given here.",
  "data": [
    {"compound": "SPEHQRVQ [UAG (6-13)]", "values": [
      {"measurement": "retention of UAG full length activity on glucose, insulin and lipid metabolisms", "setting": "[1]", "result": "retain the activity of UAG full length"}
    ]},
    {"compound": "Glu-His-Gln-Arg-Val (EHQRV; listed as Homo sapiens) [UAG (8-12)]", "values": [
      {"measurement": "retention of UAG full length activity on glucose, insulin and lipid metabolisms", "setting": "[1]", "result": "retain the activity of UAG full length"}
    ]},
    {"compound": "His-Gln-Arg (HQR; listed as Homo sapiens) [UAG (9-11)]", "values": [
      {"measurement": "retention of UAG full length activity on glucose, insulin and lipid metabolisms", "setting": "[1]", "result": "retain the activity of UAG full length"}
    ]},
    {"compound": "CC(C)C[C@H](NC(=O)[C@H](CCCCN)NC(=O)[C@H](C)NC(=O)[C@@H]1CCCN1C(=O)[C@@H]1CCCN1C(=O)[C@H](CCCCN)NC(=O)[C@H](CCCCN)NC(=O)[C@H](CO)NC(=O)[C@H](CCC(=O)O)NC(=O)[C@H](CCCCN)NC(=O)[C@H](CCCNC(=N)N)NC(=O)[C@H](CCC(N)=O)NC(=O)[C@H](CCC(N)=O)NC(=O)[C@@H](NC(=O)[C@H](CCCNC(=N)N)NC(=O)[C@H](CCC(N)=O)NC(=O)[C@H](Cc1cnc[nH]1)NC(=O)[C@H](CCC(=O)O)NC(=O)[C@@H]1CCCN1C(=O)[C@H](CO)NC(=O)[C@H](CC(C)C)NC(=O)[C@H](Cc1ccccc1)NC(=O)[C@H](CO)NC(=O)[C@H](CO)NC(=O)CN)C(C)C)C(=O)N[C@@H](CCC(N)=O)C(=O)N1CCC[C@H]1C(=O)N[C@@H](CCCNC(=N)N)C(=O)O", "note": "[UAG]", "values": [
      {"measurement": "serum UAG levels before start of the SBM (mean±SD)", "setting": "[2]; 3 mcg/kg·hr UAG overnight infusion", "result": "10998 ± 2623", "unit": "pg/mL"},
      {"measurement": "serum UAG levels before start of the SBM (mean±SD)", "setting": "[2]; 10 mcg/kg·hr UAG overnight infusion", "result": "12085 ± 1616", "unit": "pg/mL"},
      {"measurement": "laboratory evaluations", "setting": "[3]; 3 and 10 μg UAG/kg/hr overnight infusion", "result": "no significant changes in chemistry or parameters"},
      {"measurement": "side effects reported by subjects", "setting": "[3]; 3 and 10 μg UAG/kg/hr overnight infusion vs placebo", "result": "did not report more side effects than placebo"}
    ]},
    {"compound": "His-Gln-Arg-Val (HQRV; listed as Homo sapiens) [UAG (9-12)]", "values": [
      {"measurement": "smallest UAG fragment retaining UAG biological activity", "setting": "[1]", "result": "smallest UAG fragment to retain the biological activity of UAG"},
      {"measurement": "retention of UAG full length activity on glucose, insulin and lipid metabolisms", "setting": "[1]", "result": "retain the activity of UAG full length"}
    ]},
    {"compound": "Glu-His-Gln-Arg (EHQR; listed as Homo sapiens) [UAG (8-11)]", "values": [
      {"measurement": "smallest UAG fragment retaining UAG biological activity", "setting": "[1]", "result": "smallest UAG fragment to retain UAG activities"},
      {"measurement": "retention of UAG full length activity on glucose, insulin and lipid metabolisms", "setting": "[1]", "result": "retain the activity of UAG full length"}
    ]},
    {"compound": "Ser-Pro-Glu-His-Gln-Arg-Val-Gln (cycl) (SPEHQRVQ; cyclised; (1)..(8) Cyclic; listed as Homo sapiens) [cyclic UAG (6-13)]", "values": [
      {"measurement": "effect on AG-induced food intake (orexigenic effect)", "setting": "AG-induced food intake", "result": "able to counteract the orexigenic effects induced by AG"}
    ]},
    {"compound": "EHQRVQ [UAG (8-13)]", "values": [
      {"measurement": "retention of UAG full length activity on glucose, insulin and lipid metabolisms", "setting": "[1]", "result": "retain the activity of UAG full length"}
    ]}
  ]
}
